From PubChem BioAssay (NCI)
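1) Cells in 96-well plates. 2) Compound, 48 h, 5 concentrations. 3) Linear interpolation between surrounding doses. 4) Unreached endpoint = highest concentration. Here, GI50 denotes the concentration required for 50% inhibition of growth. TGI denotes the concentration required for complete inhibition of growth.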

Experiments:
Test in all cases: NCI-60 cell line screen, 48 h
COLO 205 colon = tested on: COLO 205 colon
CAKI-1 renal = tested on: CAKI-1 renal
SNB-19 CNS = tested on: SNB-19 CNS
HCC-2998 colon = tested on: HCC-2998 colon
SK-MEL-28 melanoma = tested on: SK-MEL-28 melanoma
UACC-257 melanoma = tested on: UACC-257 melanoma
SK-MEL-2 melanoma = tested on: SK-MEL-2 melanoma
SR leukemia = tested on: SR leukemia
ACHN renal = tested on: ACHN renal
HOP-62 NSCLC = tested on: HOP-62 NSCLC
BT-549 breast = tested on: BT-549 breast
TK-10 renal = tested on: TK-10 renal
RPMI-8226 leukemia = tested on: RPMI-8226 leukemia
CCRF-CEM leukemia = tested on: CCRF-CEM leukemia
OVCAR-8 ovarian = tested on: OVCAR-8 ovarian
U251 CNS = tested on: U251 CNS
UACC-62 melanoma = tested on: UACC-62 melanoma
MCF7 breast = tested on: MCF7 breast
OVCAR-4 ovarian = tested on: OVCAR-4 ovarian
SN12C renal = tested on: SN12C renal
SK-OV-3 ovarian = tested on: SK-OV-3 ovarian
HT29 colon = tested on: HT29 colon
786-0 renal = tested on: 786-0 renal
K-562 leukemia = tested on: K-562 leukemia
IGROV1 ovarian = tested on: IGROV1 ovarian
M14 melanoma = tested on: M14 melanoma
HS 578T breast = tested on: HS 578T breast
MALME-3M melanoma = tested on: MALME-3M melanoma
UO-31 renal = tested on: UO-31 renal
SF-539 CNS = tested on: SF-539 CNS
HCT-15 colon = tested on: HCT-15 colon
PC-3 prostate = tested on: PC-3 prostate
A498 renal = tested on: A498 renal
HOP-92 NSCLC = tested on: HOP-92 NSCLC
SF-295 CNS = tested on: SF-295 CNS
EKVX NSCLC = tested on: EKVX NSCLC
MDA-MB-435 = tested on: MDA-MB-435
A549 NSCLC = tested on: A549 NSCLC
NCI-H522 lung = tested on: NCI-H522 lung
NCI-H460 lung = tested on: NCI-H460 lung
MOLT-4 leukemia = tested on: MOLT-4 leukemia
OVCAR-5 ovarian = tested on: OVCAR-5 ovarian
NCI/ADR-RES ovarian = tested on: NCI/ADR-RES ovarian
MDA-MB-231 breast = tested on: MDA-MB-231 breast
SW-620 colon = tested on: SW-620 colon
SF-268 CNS = tested on: SF-268 CNS
DU-145 prostate = tested on: DU-145 prostate
HL-60(TB) leukemia = tested on: HL-60(TB) leukemia
KM12 colon = tested on: KM12 colon
SNB-75 CNS = tested on: SNB-75 CNS
RXF 393 renal = tested on: RXF 393 renal
T-47D breast = tested on: T-47D breast
NCI-H226 lung = tested on: NCI-H226 lung
OVCAR-3 ovarian = tested on: OVCAR-3 ovarian
NCI-H23 lung = tested on: NCI-H23 lung
LOX IMVI melanoma = tested on: LOX IMVI melanoma
SK-MEL-5 melanoma = tested on: SK-MEL-5 melanoma

Question: What does the source list for `Cc1[nH]nc2ncc(C#Cc3cncc(C(=O)Nc4ccc(CN5CCN(C)CC5)c(C(F)(F)F)c4)c3)cc12`?
Answer: GI50 (COLO 205 colon): 0.287 µM; TGI (COLO 205 colon): 1.91 µM; GI50 (CAKI-1 renal): 0.0647 µM; TGI (CAKI-1 renal): 0.994 µM; GI50 (SNB-19 CNS): 1.03 µM; TGI (SNB-19 CNS): 13.2 µM; GI50 (HCC-2998 colon): 0.488 µM; GI50 (SK-MEL-28 melanoma): 0.212 µM; TGI (SK-MEL-28 melanoma): 3.74 µM; GI50 (UACC-257 melanoma): 0.317 µM; GI50 (SK-MEL-2 melanoma): 0.0852 µM; TGI (SK-MEL-2 melanoma): 0.352 µM; GI50 (SR leukemia): 0.14 µM; GI50 (ACHN renal): 0.126 µM; GI50 (HOP-62 NSCLC): 0.366 µM; TGI (HOP-62 NSCLC): 8.82 µM; GI50 (BT-549 breast): 0.301 µM; TGI (BT-549 breast): 7.25 µM; GI50 (TK-10 renal): 0.441 µM; GI50 (RPMI-8226 leukemia): 0.426 µM; GI50 (CCRF-CEM leukemia): 0.293 µM; TGI (CCRF-CEM leukemia): > 27.5 µM; GI50 (OVCAR-8 ovarian): 0.413 µM; GI50 (U251 CNS): 0.46 µM; TGI (U251 CNS): 28.1 µM; GI50 (UACC-62 melanoma): 0.0959 µM; TGI (UACC-62 melanoma): 0.704 µM; GI50 (MCF7 breast): 0.772 µM; TGI (MCF7 breast): > 100 µM; GI50 (OVCAR-4 ovarian): 0.582 µM; GI50 (SN12C renal): 0.299 µM; TGI (SN12C renal): 11.2 µM; GI50 (SK-OV-3 ovarian): 0.174 µM; TGI (SK-OV-3 ovarian): > 51.8 µM; GI50 (HT29 colon): 0.174 µM; TGI (HT29 colon): 8.57 µM; GI50 (786-0 renal): 0.173 µM; TGI (786-0 renal): 1.79 µM; TGI (K-562 leukemia): 2.03 µM; GI50 (IGROV1 ovarian): 0.0582 µM; TGI (IGROV1 ovarian): 1.73 µM; GI50 (M14 melanoma): 0.0444 µM; TGI (M14 melanoma): 2.07 µM; GI50 (HS 578T breast): 0.0872 µM; TGI (HS 578T breast): 0.929 µM; GI50 (MALME-3M melanoma): 0.0654 µM; TGI (MALME-3M melanoma): 0.304 µM; GI50 (UO-31 renal): 0.326 µM; TGI (UO-31 renal): 1.98 µM; GI50 (SF-539 CNS): 0.158 µM; TGI (SF-539 CNS): 1.08 µM; GI50 (HCT-15 colon): 0.288 µM; TGI (HCT-15 colon): 4.04 µM; GI50 (PC-3 prostate): 0.33 µM; TGI (PC-3 prostate): > 21.8 µM; GI50 (A498 renal): 0.218 µM; TGI (A498 renal): 1.24 µM; GI50 (HOP-92 NSCLC): 0.123 µM; TGI (HOP-92 NSCLC): 0.808 µM; GI50 (SF-295 CNS): 0.286 µM; GI50 (EKVX NSCLC): 0.294 µM; GI50 (MDA-MB-435): 0.242 µM; TGI (MDA-MB-435): 21.1 µM; GI50 (A549 NSCLC): 0.453 µM; TGI (A549 NSCLC): > 100 µM; GI50 (NCI-H522 lung): 0.124 µM; TGI (NCI-H522 lung): 4.73 µM; GI50 (NCI-H460 lung): 0.147 µM; TGI (NCI-H460 lung): 4.64 µM; GI50 (MOLT-4 leukemia): 0.155 µM; GI50 (OVCAR-5 ovarian): 0.418 µM; GI50 (NCI/ADR-RES ovarian): 5.77 µM; TGI (NCI/ADR-RES ovarian): > 25.3 µM; GI50 (MDA-MB-231 breast): 0.0789 µM; TGI (MDA-MB-231 breast): 0.737 µM; GI50 (SW-620 colon): 0.183 µM; TGI (SW-620 colon): 4.38 µM; GI50 (SF-268 CNS): 0.289 µM; GI50 (DU-145 prostate): 0.152 µM; GI50 (HL-60(TB) leukemia): 0.28 µM; TGI (HL-60(TB) leukemia): 16.9 µM; GI50 (KM12 colon): < 0.0116 µM; GI50 (SNB-75 CNS): 0.491 µM; TGI (SNB-75 CNS): 13.6 µM; GI50 (RXF 393 renal): 0.0752 µM; TGI (RXF 393 renal): 0.6 µM; GI50 (T-47D breast): 0.508 µM; TGI (T-47D breast): > 61.9 µM; GI50 (NCI-H226 lung): 0.124 µM; TGI (NCI-H226 lung): 0.953 µM; GI50 (OVCAR-3 ovarian): 0.401 µM; GI50 (NCI-H23 lung): 0.439 µM; TGI (NCI-H23 lung): > 100 µM; GI50 (LOX IMVI melanoma): 0.155 µM; TGI (LOX IMVI melanoma): 0.993 µM; GI50 (SK-MEL-5 melanoma): 0.308 µM; TGI (SK-MEL-5 melanoma): 12.5 µM
